# Experiments:
# Test in all cases: relative viability (nuclei count vs DMSO), 5 days (fraction); higher = more cells survive
# [1] = compound: CC1=NN=C(O1)C2=NN=C(C=C2)N3CCC(CC3)OC4=C(C=CC(=C4)F)Cl + Nc1ncn([C@H]2C[C@H](O)[C@@H](CO)O2)c(=O)n1 [Decitabine] (partner 2 µM)
# In short: (§1)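 Lung cancer cell lines were seeded in 1536-well plates and dosed by pin tool the next day, with either a single drug or a fixed anchor-drug dose combined with five library-drug doses (not always all listed) spaced in √10 steps. Five days later, one step fixed the cells and stained their nuclei (final 0.05% Triton X-100, 1% formaldehyde, 1 ug/ml Hoechst), and nuclei were counted on 4× images. Relative viability is the nuclei count in treated wells divided by the count in vehicle wells, and each value is the median of duplicate plates.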
# [2] = compound: CC(C)C[C@@H](C(=O)N[C@H](C(=O)OC1CCCC1)c1ccccc1)[C@H](O)C(=O)NO [Tosedostat] + NC(=O)Nc1cc(-c2cccc(F)c2)sc1C(=O)N[C@H]1CCCNC1 [AZD7762] (partner 0.2 µM)
# In short: as §1
# [3] = compound: CC(C)C[C@@H](C(=O)N[C@H](C(=O)OC1CCCC1)c1ccccc1)[C@H](O)C(=O)NO [Tosedostat] + CC(=O)c1c(C)c2cnc(Nc3ccc(N4CCNCC4)cn3)nc2n(C2CCCC2)c1=O [Palbociclib] (partner 0.5 µM)
# In short: as §1
# [4] = compound: CC1=NN=C(O1)C2=NN=C(C=C2)N3CCC(CC3)OC4=C(C=CC(=C4)F)Cl + C[C@@H](Oc1cc(-c2cnn(C3CCNCC3)c2)cnc1N)c1c(Cl)ccc(F)c1Cl [Crizotinib] (partner 1 µM)
# In short: as §1
Cell Line,relative viability ([1]; first compound 0.253 µM),relative viability ([1]; first compound 0.8 µM),relative viability ([1]; first compound 2.53 µM),relative viability ([1]; first compound 8 µM),relative viability ([2]; first compound 0.02 µM),relative viability ([2]; first compound 0.06325 µM),relative viability ([2]; first compound 0.2 µM),relative viability ([2]; first compound 0.6325 µM),relative viability ([2]; first compound 2 µM),relative viability ([3]; first compound 0.02 µM),relative viability ([3]; first compound 0.06325 µM),relative viability ([3]; first compound 0.2 µM),relative viability ([3]; first compound 0.6325 µM),relative viability ([3]; first compound 2 µM),relative viability ([4]; first compound 0.253 µM),relative viability ([4]; first compound 0.8 µM),relative viability ([4]; first compound 2.53 µM),relative viability ([4]; first compound 8 µM)
NCI-H522,0.629,0.624,0.573,0.65,0.901,0.907,0.953,0.827,0.738,0.964,0.845,1.02,1.17,0.945,,,,
HCC-15,0.497,0.5,0.493,0.457,1.25,1.17,1.29,1.31,1.15,0.759,0.688,0.572,0.708,0.653,0.42,0.405,0.374,0.36
A-427,0.55,0.576,0.53,0.569,0.787,0.804,0.773,0.682,0.698,0.501,0.514,0.55,0.494,0.507,0.826,,0.779,0.671
NCI-H3122,0.376,0.31,0.412,0.281,1.1,0.919,0.894,0.875,1.14,0.195,0.211,0.216,0.22,0.249,0.3,0.303,0.318,0.359
NCI-H1915,0.255,0.223,0.242,0.217,0.685,0.681,0.785,0.612,0.54,0.41,0.512,0.554,0.523,0.495,0.445,0.312,0.311,0.253
NCI-H1355,0.311,0.333,0.334,0.339,0.698,0.703,0.72,0.606,0.621,0.351,0.399,0.384,0.403,0.374,,,0.985,0.959
NCI-H2023,0.191,0.185,0.186,0.176,,,,,,0.333,0.331,0.368,0.344,0.424,0.453,0.493,0.455,0.441
NCI-H1755,0.524,0.54,0.605,0.503,0.43,0.462,0.398,0.407,0.347,0.472,0.47,0.465,0.503,0.423,0.578,0.576,0.619,0.512
HCC-366,0.242,0.207,0.292,0.252,0.291,0.34,0.428,0.361,0.485,0.389,0.43,0.372,0.391,0.369,0.289,0.284,0.256,0.272
SK-MES-1,0.369,0.388,0.356,0.326,,,,,,0.305,0.3,0.353,0.355,0.302,0.773,0.807,0.81,0.724
NCI-H596,1.01,0.977,1.08,0.762,1.04,1.21,1.13,1.17,1.2,,,,,,,0.95,0.963,0.795
RERF-LC-KJ,0.574,0.561,0.52,0.521,1.12,1.08,1.08,0.912,0.664,1.23,1.04,0.845,0.755,0.859,0.496,0.498,0.495,0.458
LOU-NH91,,0.773,0.773,0.759,0.805,0.862,0.802,0.745,0.624,0.549,0.458,0.545,0.559,0.528,,0.654,0.703,0.749
Calu-6,,,,,,,,,,,,,,,0.485,0.469,0.483,0.465
LC-2-ad,0.335,0.314,0.381,0.348,0.929,0.85,0.873,0.8,0.918,0.49,0.496,0.525,0.446,0.529,0.334,0.314,0.336,0.326
CAL-12T,,,,,0.703,0.577,0.593,0.678,0.629,0.468,0.362,0.312,0.299,0.397,0.552,0.602,0.728,0.506
NCI-H1650,0.338,0.402,0.387,0.392,,,,,,0.352,0.39,0.376,0.417,0.504,,0.748,0.806,0.803
NCI-H1703,,,,,0.122,0.133,0.138,0.122,0.0985,,,,,,0.728,0.661,0.764,0.611
BEN,0.75,0.775,0.713,0.668,0.813,0.724,0.901,1.12,1.04,0.454,0.463,0.537,0.497,0.465,0.709,0.796,0.913,0.86
EMC-BAC-2,0.903,0.837,0.957,0.794,1.09,1.02,1.1,1.07,0.859,0.516,0.522,0.536,0.484,0.489,0.583,0.648,0.632,0.545
LXF-289,0.317,0.323,0.343,0.3,1.17,1.08,1.19,1.05,1.08,0.653,0.608,0.612,0.665,0.625,0.612,0.593,0.623,0.545
ABC-1,0.49,0.539,0.406,0.423,1.2,,0.755,0.822,0.732,0.826,0.706,0.704,0.576,0.531,0.686,0.615,0.426,0.436
NCI-H2170,0.366,0.323,0.357,0.321,0.85,0.94,0.948,0.976,0.892,0.399,0.394,0.393,0.406,0.393,0.553,0.573,0.638,0.449

Cell Line,relative viability ([1]; first compound 0.253 µM),relative viability ([1]; first compound 0.8 µM),relative viability ([1]; first compound 2.53 µM),relative viability ([1]; first compound 8 µM),relative viability ([2]; first compound 0.02 µM),relative viability ([2]; first compound 0.06325 µM),relative viability ([2]; first compound 0.2 µM),relative viability ([2]; first compound 0.6325 µM),relative viability ([2]; first compound 2 µM),relative viability ([3]; first compound 0.02 µM),relative viability ([3]; first compound 0.06325 µM),relative viability ([3]; first compound 0.2 µM),relative viability ([3]; first compound 0.6325 µM),relative viability ([3]; first compound 2 µM),relative viability ([4]; first compound 0.253 µM),relative viability ([4]; first compound 0.8 µM),relative viability ([4]; first compound 2.53 µM),relative viability ([4]; first compound 8 µM)
NCI-H1437,0.376,0.383,0.399,0.368,1.14,1.15,1.14,1.08,0.904,0.355,0.32,0.357,0.353,0.38,0.605,0.506,0.55,0.535
EBC-1,,,,,,,,,,,,,,,0.216,0.171,0.179,0.202
NCI-H441,0.221,0.227,0.259,0.254,1.39,1.09,1.13,0.85,0.718,0.188,0.258,0.242,0.23,0.186,0.615,0.428,0.541,0.36
NCI-H2087,0.238,0.265,0.268,0.271,1.52,1.31,1.22,1.2,1.24,0.247,0.288,0.233,0.207,0.22,0.652,0.598,0.544,0.486
NCI-H647,0.32,0.289,0.275,0.223,0.664,0.454,0.368,0.366,0.398,0.401,0.344,0.388,0.427,0.502,0.664,0.691,0.726,0.528
SW 1573,0.517,0.471,0.482,0.378,,,,,,0.427,0.394,0.369,0.308,0.402,0.777,0.827,0.795,0.664
NCI-H2342,0.579,0.552,0.528,0.5,0.512,0.599,0.446,0.41,0.432,0.536,0.507,0.578,0.524,0.61,,,,
NCI-H2009,0.322,0.304,0.311,0.268,,,,,,0.252,0.212,0.254,0.274,0.181,0.565,0.529,0.547,0.465
COR-L23,0.383,0.409,0.396,0.409,,,,,,0.389,0.357,0.338,0.277,0.288,0.527,0.586,0.433,0.435
COR-L 105,0.676,0.592,0.667,0.638,,,,,,0.402,0.43,0.398,0.357,0.392,0.689,0.907,0.786,0.82
NCI-H2228,,,,,,,,,,1,0.865,0.821,0.473,0.426,0.357,0.408,0.533,0.42
NCI-H1793,0.468,0.482,0.343,0.452,0.458,0.584,0.546,0.231,0.338,0.302,0.325,0.339,0.293,0.375,,,,
A549,0.223,0.218,0.222,0.208,,,,,,,,,,,0.461,0.383,0.316,0.319
NCI-H661,0.519,0.465,0.407,0.396,,,,,,0.428,0.432,0.491,0.507,0.493,0.609,0.661,0.711,0.747
NCI-H1395,0.689,0.762,0.757,0.714,0.429,0.42,0.414,0.398,0.38,0.63,0.661,0.596,0.709,0.596,,,,
NCI-H1299,,,,,,,,,,,,,,,0.785,0.711,0.756,0.689
SW 900,,0.467,0.395,0.426,0.56,0.603,0.644,0.661,0.556,0.446,0.462,0.479,0.479,0.466,,,,
IA-LM,,,,,,,,,,,,,,,0.415,0.266,0.288,0.34
NCI-H520,0.603,0.495,0.478,0.362,,,,,,0.245,0.236,0.239,0.303,0.315,0.692,0.707,0.694,0.632
SK-LU-1,0.667,0.517,0.595,0.557,,,,,,0.429,0.401,0.467,0.341,0.4,0.895,0.732,0.826,0.589
NCI-H1563,,,,,,,,,,,,,,,0.861,0.858,0.837,0.868
NCI-H1648,0.378,0.465,0.433,0.473,0.678,0.735,0.768,0.538,0.509,0.251,0.264,0.263,0.313,0.248,,,,
